Assay [1] concerns the target T1, WD repeat-containing protein 91 (Homo sapiens, UniProt A4D1P6).
T1 sequence (A4D1P6 whole entry): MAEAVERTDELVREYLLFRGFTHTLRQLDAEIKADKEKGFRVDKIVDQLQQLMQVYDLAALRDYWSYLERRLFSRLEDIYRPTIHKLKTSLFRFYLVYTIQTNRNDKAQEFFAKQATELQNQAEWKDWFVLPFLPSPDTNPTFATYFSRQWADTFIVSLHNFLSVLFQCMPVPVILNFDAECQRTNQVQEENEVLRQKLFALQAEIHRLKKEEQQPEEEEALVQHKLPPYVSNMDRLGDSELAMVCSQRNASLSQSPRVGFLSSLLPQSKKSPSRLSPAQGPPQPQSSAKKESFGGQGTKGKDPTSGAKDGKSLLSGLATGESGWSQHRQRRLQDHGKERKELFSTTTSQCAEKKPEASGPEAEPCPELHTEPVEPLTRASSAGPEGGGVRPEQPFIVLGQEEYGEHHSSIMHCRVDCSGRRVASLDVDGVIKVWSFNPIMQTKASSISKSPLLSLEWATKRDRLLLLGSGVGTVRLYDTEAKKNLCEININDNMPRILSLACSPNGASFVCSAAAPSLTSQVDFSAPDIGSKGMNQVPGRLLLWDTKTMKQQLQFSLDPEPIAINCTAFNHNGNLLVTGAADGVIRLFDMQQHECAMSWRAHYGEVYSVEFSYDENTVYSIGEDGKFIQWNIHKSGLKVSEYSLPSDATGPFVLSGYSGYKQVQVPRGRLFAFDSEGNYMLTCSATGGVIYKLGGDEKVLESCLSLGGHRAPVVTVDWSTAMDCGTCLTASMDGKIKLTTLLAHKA
The assay can be described thus: (§1) Binding affinity to C-terminal His6-tagged truncated WDR91 (unknown origin) (P392 to A747 residues) expressed in baculovirus-infected Sf9 cells assessed as dissociation constant incubated for 72 to 96 hrs by SPR analysis.

The target in assay [2] is T2, WD repeat-containing protein 91 (Homo sapiens) (UniProt A4D1P6).
T2 sequence (whole entry): T1 sequence (A4D1P6 whole entry)
The assay can be described thus: Binding affinity to C-terminal His6-tagged truncated WDR91 (unknown origin) (P392 to A747 residues) expressed in baculovirus-infected Sf9 cells assessed as covalent adduct formation incubated for 2 hrs by LC-MS analysis.

Assay [3] concerns the target T2, WD repeat-containing protein 91 (Homo sapiens). The experiment in a line: Binding affinity to C-terminal His6-tagged truncated WDR91 (unknown origin) (P392 to A747 residues) expressed in baculovirus-infected Sf9 cells assessed as maximum response incubated for 2 hrs relative to control.
Assay [4] shares this target. The experiment in a line: Binding affinity to C-terminal His6-tagged truncated WDR91 (unknown origin) (P392 to A747 residues) expressed in baculovirus-infected Sf9 cells assessed as thermal stabilization by measuring change in melting temperature incubated for 2 hrs by differential scanning fluorimetry analysis. (DSF heats the sample and reads unfolding from a dye or from intrinsic fluorescence.)

For assay [5] the target is unchanged. The assay is described as §1. As to conditions: time 72-96 hrs.

Active and inactive are the calls of the source. No cut-off for these calls is given here.

This note sets out measurements from ChEMBL document CHEMBL5375963, “Discovery of a First-in-Class Small-Molecule Ligand for WDR91 Using DNA-Encoded Chemical Library Selection Followed by Machine Learning” (J Med Chem, 2023).

Usually Kd stands for the constant that tells how readily two partners part at equilibrium. For `Cc1cn2cc(C(=O)NC3(c4ccc(Cl)cc4)COC3)sc2n1`, the Kd in assay [1] is 11 µM.
As for `CC(=O)NCc1ccc(C(=O)NC2(c3ccc(Cl)cc3)COC2)cc1`, the Kd in assay [1] turned out to be 97 µM.
A word on the ΔTm: it is the shift of the melting midpoint relative to a reference. With `C=CC(=O)N1CCCc2c(C(=O)NC3(c4ccc(Cl)cc4)COC3)cccc21`, the Kd in assay [1] turned out to be 36 µM. Moreover, the result in assay [2] was Active. The Rmax in assay [3] is 53%. The ΔTm in assay [4] was 4 °C.
In the case of `O=C(NC1(c2ccc(Cl)cc2)COC1)c1ccc(CN2CCCC2=O)cc1`, in assay [1], the Kd stood at 11 µM.
On the same count and under the same terms, under `O=C1Cc2c(cccc2C(=O)NC2(c3ccc(Cl)cc3)COC2)N1` stands 22 µM; under `Nc1ncnc2ccc(C(=O)NC3(c4ccc(Cl)cc4)COC3)cc12`, 42 µM.
For the molecule `O=C(NC1(c2ccc(Cl)cc2)COC1)c1ccc(-c2cc[nH]n2)s1`, the dissociation constant (Kd) in assay [1] amounted to 8 µM.
On to `NC(=O)C1CCCN(c2ccc(C(=O)NC(CCO)c3ccc(Cl)cc3)cc2)C1` (stereo not drawn), for which the Kd in assay [1] was found to be 14 µM.
For the molecule `O=C(NC1(c2ccc(Cl)cc2)COC1)c1ccc2snnc2c1`, the equilibrium dissociation constant (Kd) in assay [1] came to 14 µM.
The same measure, in the same setting: to `O=C(NC(CCO)c1ccc(Cl)cc1)c1ccc(CN2CCCC2=O)cc1` (stereo not drawn) belongs 99 µM; to `NC(=O)C1CCCN(c2ccc(C(=O)NC(c3ccc(Cl)cc3)C3CC3)cc2)C1` (stereo not drawn), 37 µM.
`C=CC(=O)N1CCCc2c(C(=O)NC(c3ccc(F)cc3)C3CCCCC3)cccc21` (stereo not drawn): the result in assay [5] and in assay [2] was inactive. In addition, the Rmax entry in assay [3] was “inactive”.
Regarding `C=CC(=O)N1CCCc2c(C(=O)NC(c3ccc(Cl)cc3)C3CC3)cccc21` (stereo not drawn), the dissociation constant (Kd) in assay [1] is 43 µM. Further, the result in assay [2] was Active. For the same molecule, the Rmax in assay [3] came out at 54%. In addition, the ΔTm in assay [4] was found to be 4 °C.
As to `C=CC(=O)Nc1ccc(CC(=O)NC2(c3ccccc3)COC2)cc1`, the result in assay [5] and in assay [2] was inactive. Moreover, the Rmax result in assay [3] was “inactive”.
Consider `O=C(NC1(c2ccc(Cl)cc2)COC1)c1ccc(C2(O)COC2)cc1`, for which the Kd in assay [1] worked out at 20 µM.
On the same count and under the same terms, to `O=C(NC(CCO)c1ccc(Cl)cc1)c1ccc(N2CCC(O)C2)cc1` (stereo not drawn) belongs 15 µM; to `O=C(c1ccc(N2CCC(O)C2)cc1)N1CC(O)(c2ccc(Cl)cc2)C1` (stereo not drawn), 16 µM; to `O=C(NC1(c2ccc(Cl)cc2)COC1)c1ccc(N2CCC(O)CC2)cc1`, 6 µM.
